Test results from PubChem BioAssay AID330 (DTP/NCI, 2004).
“And” between values parts separate entries of the source, which are not always exact repeats. Equal values may be shown once. Inconclusive results and toxic doses are left out. The calls were made as follows: active = survival T/C of 150% or more; inactive = T/C below 125% in these data.

System: P388 leukemia ip, CD2F1 mice, survival T/C
Assay: NCI In Vivo Anticancer Drug Screen. Data for tumor model P388 Leukemia (intraperitoneal) in CD2F1 (CDF1) mice
Conditions: endpoint: median survival time, higher = longer survival
Method in brief: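 Mice carrying the transplanted tumor received test compound or vehicle. Survival was recorded in each group, and the value is the treated-group measurement divided by that of the vehicle-treated control group.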

[1] = dose: 50.0 mg/kg/injection, schedule: Q01DX005 (ip), vehicle: saline with Tween-80
[2] = dose: 100.0 mg/kg/injection, schedule: Q01DX005 (ip), vehicle: saline with Tween-80
[3] = dose: 200.0 mg/kg/injection, schedule: Q01DX005 (ip), vehicle: saline with Tween-80
[4] = dose: 12.5 mg/kg/injection, schedule: Q01DX009 (ip), vehicle: water
[5] = dose: 25.0 mg/kg/injection, schedule: Q01DX009 (ip), vehicle: water
[6] = dose: 50.0 mg/kg/injection, schedule: Q01DX009 (ip), vehicle: water
[7] = dose: 100.0 mg/kg/injection, schedule: Q01DX009 (ip), vehicle: water
[8] = dose: 50.0 mg/kg/injection, schedule: Q01DX005 (ip), vehicle: Klucel (hydroxypropylcellulose) (HPC)
[9] = dose: 100.0 mg/kg/injection, schedule: Q01DX005 (ip), vehicle: Klucel (hydroxypropylcellulose) (HPC)
[10] = dose: 200.0 mg/kg/injection, schedule: Q01DX005 (ip), vehicle: Klucel (hydroxypropylcellulose) (HPC)
[11] = dose: 6.25 mg/kg/injection, schedule: Q01DX009 (ip), vehicle: Klucel (hydroxypropylcellulose) (HPC)
[12] = dose: 12.5 mg/kg/injection, schedule: Q01DX009 (ip), vehicle: Klucel (hydroxypropylcellulose) (HPC)
[13] = dose: 60.0 mg/kg/injection, schedule: Q01DX005 (ip), vehicle: Klucel (hydroxypropylcellulose) (HPC)
[14] = dose: 120.0 mg/kg/injection, schedule: Q01DX005 (ip), vehicle: Klucel (hydroxypropylcellulose) (HPC)
[15] = dose: 240.0 mg/kg/injection, schedule: Q01DX005 (ip), vehicle: Klucel (hydroxypropylcellulose) (HPC)
[16] = dose: 25.0 mg/kg/injection, schedule: Q01DX005 (ip), vehicle: Klucel (hydroxypropylcellulose) (HPC)
[17] = dose: 60.0 mg/kg/injection, schedule: Q01DX005 (ip), vehicle: saline with Tween-80
[18] = dose: 120.0 mg/kg/injection, schedule: Q01DX005 (ip), vehicle: saline with Tween-80
[19] = dose: 240.0 mg/kg/injection, schedule: Q01DX005 (ip), vehicle: saline with Tween-80
[20] = dose: 50.0 mg/kg/injection, schedule: Q01DX009 (ip), vehicle: saline with Tween-80
[21] = dose: 100.0 mg/kg/injection, schedule: Q01DX009 (ip), vehicle: saline with Tween-80
[22] = dose: 200.0 mg/kg/injection, schedule: Q01DX009 (ip), vehicle: saline with Tween-80

Measured: T/C

NCCCCC(C(=O)NC(Cc1ccc(O)cc1)C(=O)NC(CO)C(=O)OCc1ccc([N+](=O)[O-])cc1)N(C(=O)OCc1ccccc1)C(=O)OCc1ccccc1 (stereo unspecified)
inactive: [1] 101 % of control | [2] 100 % of control | [3] 97 % of control

COc1ccc(CCNCCc2ccc(OC)c(OC)c2)cc1OC
inactive: dose: 6.25 mg/kg/injection, schedule: Q01DX009 (ip), vehicle: water 96 % of control | [4] 108 % of control | [5] 100 % of control | [6] 100 % of control | [7] 90 % of control

COc1cccc2c1CCC1=CC(=O)CCC12C (stereo unspecified)
inactive: [8] 102 % of control | [9] 96 % of control | [10] 93 % of control

O=C(O)c1ccc(-c2nn[nH]n2)cc1
inactive: [11] 107 % of control | [12] 103 % of control | dose: 25.0 mg/kg/injection, schedule: Q01DX009 (ip), vehicle: Klucel (hydroxypropylcellulose) (HPC) 110 % of control | dose: 100.0 mg/kg/injection, schedule: Q01DX009 (ip), vehicle: Klucel (hydroxypropylcellulose) (HPC) 92 % of control | dose: 200.0 mg/kg/injection, schedule: Q01DX009 (ip), vehicle: Klucel (hydroxypropylcellulose) (HPC) 89 % of control

O=C(CCC(=O)Nc1cc(Cl)ccc1Cl)CC(=O)c1ccc(Cl)cc1
inactive: dose: 60.0 mg/kg/injection, schedule: Q01DX005 (ip), vehicle: saline 109 % of control | dose: 120.0 mg/kg/injection, schedule: Q01DX005 (ip), vehicle: saline 106 % of control | dose: 240.0 mg/kg/injection, schedule: Q01DX005 (ip), vehicle: saline 109 % of control

COc1ccc(CSC(=S)Nc2ccc(C)c(Br)c2)cc1
inactive: dose: 50.0 mg/kg/injection, schedule: Q01DX009 (ip), vehicle: saline 100 % of control | dose: 100.0 mg/kg/injection, schedule: Q01DX009 (ip), vehicle: saline 97 % of control | dose: 100.0 mg/kg/injection, schedule: Q01DX009 (ip), vehicle: suspension in saline 91 % of control | dose: 200.0 mg/kg/injection, schedule: Q01DX009 (ip), vehicle: saline 106 % of control | dose: 200.0 mg/kg/injection, schedule: Q01DX009 (ip), vehicle: suspension in saline 104 % of control

CC1([N+](=O)[O-])C(=O)C2(N3CCCC3)CCCC2C1c1ccccc1 (stereo unspecified)
inactive: [13] 99 % of control | [14] 91 % of control | [15] 90 % of control

Cn1c2c(c3cc(Cl)ccc31)-c1ncncc1CC2
inactive: dose: 12.5 mg/kg/injection, schedule: Q01DX005 (ip), vehicle: Klucel (hydroxypropylcellulose) (HPC) 97 % of control | [16] 97 % of control | [8] 101 % of control | dose: 100.0 mg/kg/injection, schedule: Q04DX002 (ip), vehicle: Klucel (hydroxypropylcellulose) (HPC) 92 % of control

O=c1[nH]nc(SCc2ccc(Cl)cc2)c(=O)[nH]1
inactive: [16] 92 % of control | [8] 91 % of control | [9] 90 % of control | [10] 87 % of control

C=Cc1c(C)c2cc3[nH]c(cc4nc(cc5nc(cc1[nH]2)C(C)=C5CCC(=O)OC)C(CCC(=O)OC)=C4C)c(C)c3C#N
inactive: [8] 107 % of control | [9] 109 % of control | [10] 111 % of control

OCCNCCN=C1CCC(=NCCNCCO)CC1
inactive: dose: 50.0 mg/kg/injection, schedule: Q01DX005 (ip), vehicle: saline 107 % of control | dose: 100.0 mg/kg/injection, schedule: Q01DX005 (ip), vehicle: saline 105 % of control

CCCCC(C(=O)OCC)/C(C)=N\NC(N)=S (stereo unspecified)
inactive: [13] 100 % of control | [14] 99 % of control | [15] 98 % of control

CC1=CC2(C)OC3C(=O)N(c4ccc(Cl)cc4)C(=O)C3C2N=C1 (stereo unspecified)
inactive: [17] 104 % of control | [18] 99 % of control | [19] 100 % of control

CC1C(=O)OC2C1CCC1(C)C=CC(=O)C(C)C21 (stereo unspecified)
inactive: dose: 12.5 mg/kg/injection, schedule: Q04DX002 (ip), vehicle: saline with Tween-80 110 % of control | dose: 25.0 mg/kg/injection, schedule: Q04DX002 (ip), vehicle: saline with Tween-80 103 % of control

NC(=S)c1sc(-c2ccccc2)cc1N
inactive: [13] 108 % of control | [14] 106 % of control | [15] 104 % of control

CC(=O)c1c(C)[nH]c(-c2ccccc2)c1NS(=O)(=O)c1ccc(N)cc1
inactive: [17] 98 % of control | [18] 91 % of control

Cc1nnc(NS(=O)(=O)c2ccc(N=Nc3cc(N=Nc4ccc(S(=O)(=O)Nc5nnc(C)s5)cc4)c4c(NC(=O)C(Cl)Cl)cccc4c3OC(=O)C(Cl)Cl)cc2)s1 (tested in a mixture with another compound)
inactive: dose: 3.12 mg/kg/injection, schedule: Q01DX009 (ip), vehicle: Klucel (hydroxypropylcellulose) (HPC) 111 % of control | [11] 116 % of control | dose: 6.25 mg/kg/injection, schedule: Q01DX009 (ip), vehicle: saline with Tween-80 109 % of control | [12] 120 % of control | [20] 99 % of control and 97 % of control | [21] 100 % of control | [22] 98 % of control

CCN(CC)C(=NC(C)C)c1ccccc1
inactive: dose: 12.5 mg/kg/injection, schedule: Q01DX009 (ip), vehicle: saline 98 % of control | dose: 25.0 mg/kg/injection, schedule: Q01DX009 (ip), vehicle: saline 94 % of control

COc1ccc(N=C2C(=Nc3ccc(OC)cc3)N(c3ccc(OC)cc3)C(=S)N2C)cc1
inactive: dose: 50.0 mg/kg/injection, schedule: Q01DX005 (ip), vehicle: Klucel + Tween-80 106 % of control | dose: 100.0 mg/kg/injection, schedule: Q01DX005 (ip), vehicle: Klucel + Tween-80 93 % of control | dose: 200.0 mg/kg/injection, schedule: Q01DX005 (ip), vehicle: Klucel + Tween-80 106 % of control

CC1CCCCN1CC(C)(C)C (stereo unspecified)
inactive: [13] 100 % of control | [14] 93 % of control

CCN(CC)CCNc1cccc2c(SC)ccnc12
inactive: [1] 101 % of control | [2] 104 % of control | [3] 101 % of control

O=C(Nc1cccc2c1C(=O)c1cccc(NC(=O)c3ccc(C(=O)Nc4cccc5c4C(=O)c4cccc(NC(=O)c6ccccc6)c4C5=O)cc3)c1C2=O)c1ccccc1
inactive: [20] 100 % of control | [21] 94 % of control | [22] 93 % of control

CC(=O)CC(C)(C)C1CCCCC1
inactive: [4] 116 % of control | [5] 108 % of control | [6] 103 % of control | [7] 107 % of control | dose: 200.0 mg/kg/injection, schedule: Q01DX009 (ip), vehicle: water 104 % of control

COc1ccc2nc(C)cc(N=[N+]=[N-])c2c1
inactive: [17] 100 % of control | [18] 100 % of control | [19] 91 % of control

CCn1c2ccc(N=C=O)cc2c2c3[nH]c(=O)c4cccn4c3ccc21
inactive: [1] 95 % of control | [2] 88 % of control | [3] 86 % of control

Cc1cccc2cc3ccccc3c[n+]12
inactive: dose: 6.25 mg/kg/injection, schedule: Q01DX005 (ip), vehicle: saline + Tween-80 + alcohol 101 % of control | dose: 12.5 mg/kg/injection, schedule: Q01DX005 (ip), vehicle: saline + Tween-80 + alcohol 101 % of control | dose: 25.0 mg/kg/injection, schedule: Q01DX005 (ip), vehicle: saline + Tween-80 + alcohol 101 % of control

CC(C)(C)N1OC1c1ccccc1 (stereo unspecified)
inactive: dose: 25.0 mg/kg/injection, schedule: Q04DX003 (ip), vehicle: saline with Tween-80 108 % of control | dose: 50.0 mg/kg/injection, schedule: Q04DX003 (ip), vehicle: saline with Tween-80 105 % of control | dose: 100.0 mg/kg/injection, schedule: Q04DX003 (ip), vehicle: saline with Tween-80 108 % of control | dose: 200.0 mg/kg/injection, schedule: Q04DX003 (ip), vehicle: saline with Tween-80 108 % of control
